Results as given in patent US12077503B2, “Substituted cyclic amides and their use as herbicides” (FMC CORPORATION, priority 2015, dated 2024).

Columns and labels:
Assay type in all cases: in vivo
[1] = test system: giant foxtail (Setaria faberi); assay: Test G Post-Emergence Protocol; details: Setaria faberi, post-emergence, 312 h; for pest or weed control at 15.625 g/ha: 15.625 g ai/ha, evaluated after 13 days (100=total damage to plant; 0=no damage to plant), read-out: Foxtail, Giant damage rating; for pest or weed control at 62.5 g/ha: 62.5 g ai/ha, read-out: Foxtail, Giant damage rating (100=total damage to plant; 0=no damage to plant); for pest or weed control at 62.5 g/ha / pest or weed control at 250 g/ha: evaluated after 13 days; for pest or weed control at 250 g/ha: 250 g ai/ha, read-out: damage to plant, Foxtail, Giant (100=total damage to plant; 0=no damage to plant)
In short: (§1)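 Foliar application was made 8 days after sowing, using an aqueous spray of the active in acetone/water (50:50) with 0.5% Tween 20, at doses of 15.625, 62.5 or 250 g/ha. Injury was assessed 13 days later, where 100 meant the plant was fully damaged.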

[2] = test system: redroot pigweed (Amaranthus retroflexus); assay: Test G Post-Emergence Protocol; details: Amaranthus retroflexus, post-emergence, 312 h; for pest or weed control at 15.625 g/ha: 15.625 g ai/ha, evaluated after 13 days (100=total damage to plant; 0=no damage to plant), read-out: Pigweed, Redroot damage rating; for pest or weed control at 62.5 g/ha: 62.5 g ai/ha, read-out: Pigweed, Redroot damage rating (100=total damage to plant; 0=no damage to plant); for pest or weed control at 62.5 g/ha / pest or weed control at 250 g/ha: evaluated after 13 days; for pest or weed control at 250 g/ha: 250 g ai/ha, read-out: damage to plant, Pigweed, Redroot (100=total damage to plant; 0=no damage to plant)
In short: as §1

[3] = test system: barnyardgrass (Echinochloa crus-galli); assay: Test G Post-Emergence Protocol; details: Echinochloa crus-galli, post-emergence, 312 h; for pest or weed control at 15.625 g/ha: 15.625 g ai/ha, evaluated after 13 days (100=total damage to plant; 0=no damage to plant), read-out: Barnyardgrass damage rating; for pest or weed control at 62.5 g/ha: 62.5 g ai/ha, read-out: Barnyardgrass damage rating (100=total damage to plant; 0=no damage to plant); for pest or weed control at 62.5 g/ha / pest or weed control at 250 g/ha: evaluated after 13 days; for pest or weed control at 250 g/ha: 250 g ai/ha, read-out: damage to plant, Barnyardgrass (100=total damage to plant; 0=no damage to plant)
In short: as §1

[4] = test system: ivy-leaved morning glory (Ipomoea hederacea); assay: Test G Post-Emergence Protocol; details: Ipomoea, post-emergence, 312 h; for pest or weed control at 15.625 g/ha: 15.625 g ai/ha, evaluated after 13 days (100=total damage to plant; 0=no damage to plant), read-out: Morningglory, Ivy-leaved damage rating; for pest or weed control at 62.5 g/ha: 62.5 g ai/ha, read-out: Morningglory, Ivy-leaved damage rating (100=total damage to plant; 0=no damage to plant); for pest or weed control at 62.5 g/ha / pest or weed control at 250 g/ha: evaluated after 13 days; for pest or weed control at 250 g/ha: 250 g ai/ha, read-out: damage to plant, Morningglory, Ivy-leaved (100=total damage to plant; 0=no damage to plant)
In short: as §1

[5] = test system: velvetleaf (Abutilon theophrasti); assay: Test G Post-Emergence Protocol; details: Abutilon theophrasti, post-emergence, 312 h; for pest or weed control at 15.625 g/ha: 15.625 g ai/ha, evaluated after 13 days (100=total damage to plant; 0=no damage to plant), read-out: Velvetleaf damage rating; for pest or weed control at 62.5 g/ha: 62.5 g ai/ha, read-out: Velvetleaf damage rating (100=total damage to plant; 0=no damage to plant); for pest or weed control at 62.5 g/ha / pest or weed control at 250 g/ha: evaluated after 13 days; for pest or weed control at 250 g/ha: 250 g ai/ha, read-out: damage to plant, Velvetleaf (100=total damage to plant; 0=no damage to plant)
In short: as §1

corn (Zea mays) [6] = assay: Test G Post-Emergence Protocol; details: Zea mays, post-emergence, 312 h; for plant injury at 15.625 g/ha: 15.625 g ai/ha, evaluated after 13 days (100=total damage to plant; 0=no damage to plant), read-out: Corn damage rating; for plant injury at 62.5 g/ha: 62.5 g ai/ha, read-out: Corn damage rating (100=total damage to plant; 0=no damage to plant); for plant injury at 62.5 g/ha / plant injury at 250 g/ha: evaluated after 13 days; for plant injury at 250 g/ha: 250 g ai/ha, read-out: damage to plant, Corn (100=total damage to plant; 0=no damage to plant)
In short: as §1

[7] = test system: giant foxtail (Setaria faberi); assay: Test G Pre-Emergence Protocol; details: Setaria faberi, pre-emergence, 312 h, evaluated after 13 days; for pest or weed control at 15.625 g/ha: 15.625 g ai/ha; for pest or weed control at 15.625 g/ha / pest or weed control at 250 g/ha: read-out: Foxtail, Giant damage rating (100=total damage to plant; 0=no damage to plant); for pest or weed control at 62.5 g/ha: 62.5 g ai/ha, 100=total damage to plant, 0=no damage to plant, read-out: plant damage rating, Foxtail, Giant; for pest or weed control at 250 g/ha: 250 g ai/ha
In short: (§2)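 Herbicidal effect was rated 13 days post-application on a scale where 100 equals total damage. Spraying took place the day after sowing, using 15.625, 62.5 or 250 g/ha of compound in a 50:50 acetone/water solution with 0.5% Tween 20.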

[8] = test system: redroot pigweed (Amaranthus retroflexus); assay: Test G Pre-Emergence Protocol; details: Amaranthus retroflexus, pre-emergence, 312 h, evaluated after 13 days; for pest or weed control at 15.625 g/ha: 15.625 g ai/ha; for pest or weed control at 15.625 g/ha / pest or weed control at 250 g/ha: read-out: Pigweed, Redroot damage rating (100=total damage to plant; 0=no damage to plant); for pest or weed control at 62.5 g/ha: 62.5 g ai/ha, 100=total damage to plant, 0=no damage to plant, read-out: plant damage rating, Pigweed, Redroot; for pest or weed control at 250 g/ha: 250 g ai/ha
In short: as §2

[9] = test system: barnyardgrass (Echinochloa crus-galli); assay: Test G Pre-Emergence Protocol; details: Echinochloa crus-galli, pre-emergence, 312 h, evaluated after 13 days; for pest or weed control at 15.625 g/ha: 15.625 g ai/ha, read-out: Barnyard grass damage rating (100=total damage to plant; 0=no damage to plant); for pest or weed control at 62.5 g/ha: 62.5 g ai/ha, 100=total damage to plant, 0=no damage to plant, read-out: plant damage rating, Barnyardgrass; for pest or weed control at 250 g/ha: 250 g ai/ha, read-out: Barnyardgrass damage rating (100=total damage to plant; 0=no damage to plant)
In short: as §2

[10] = test system: ivy-leaved morning glory (Ipomoea hederacea); assay: Test G Pre-Emergence Protocol; details: Ipomoea, pre-emergence, 312 h, evaluated after 13 days; for pest or weed control at 15.625 g/ha: 15.625 g ai/ha, read-out: Morning-glory, Ivy-leaved damage rating (100=total damage to plant; 0=no damage to plant); for pest or weed control at 62.5 g/ha: 62.5 g ai/ha, 100=total damage to plant, 0=no damage to plant, read-out: plant damage rating, Morningglory, Ivy-leaved; for pest or weed control at 250 g/ha: 250 g ai/ha, read-out: Morningglory, Ivy-leaved damage rating (100=total damage to plant; 0=no damage to plant)
In short: as §2

[11] = test system: velvetleaf (Abutilon theophrasti); assay: Test G Pre-Emergence Protocol; details: Abutilon theophrasti, pre-emergence, 312 h, evaluated after 13 days; for pest or weed control at 15.625 g/ha: 15.625 g ai/ha; for pest or weed control at 15.625 g/ha / pest or weed control at 250 g/ha: read-out: Velvetleaf damage rating (100=total damage to plant; 0=no damage to plant); for pest or weed control at 62.5 g/ha: 62.5 g ai/ha, 100=total damage to plant, 0=no damage to plant, read-out: plant damage rating, Velvetleaf; for pest or weed control at 250 g/ha: 250 g ai/ha
In short: as §2

corn (Zea mays) [12] = assay: Test G Pre-Emergence Protocol; details: Zea mays, pre-emergence, 312 h, evaluated after 13 days; for plant injury at 15.625 g/ha: 15.625 g ai/ha; for plant injury at 15.625 g/ha / plant injury at 250 g/ha: read-out: Corn damage rating (100=total damage to plant; 0=no damage to plant); for plant injury at 62.5 g/ha: 62.5 g ai/ha, 100=total damage to plant, 0=no damage to plant, read-out: plant damage rating, Corn; for plant injury at 250 g/ha: 250 g ai/ha
In short: as §2

CN1C[C@@H](c2ccc(C(F)(F)F)cc2)[C@H](C(=O)Nc2sccc2C#N)C1=O (racemic) [Compound 1520]
pest or weed control at 15.625 g/ha [1]: 0% | pest or weed control at 62.5 g/ha [1]: 30% | pest or weed control at 250 g/ha [1]: 70% | pest or weed control at 15.625 g/ha [2]: 0% | pest or weed control at 62.5 g/ha [2]: 0% | pest or weed control at 250 g/ha [2]: 10% | pest or weed control at 15.625 g/ha [3]: 0% | pest or weed control at 62.5 g/ha [3]: 30% | pest or weed control at 250 g/ha [3]: 60% | pest or weed control at 15.625 g/ha [4]: 10% | pest or weed control at 62.5 g/ha [4]: 30% | pest or weed control at 250 g/ha [4]: 40% | pest or weed control at 15.625 g/ha [5]: 0% | pest or weed control at 62.5 g/ha [5]: 0% | pest or weed control at 250 g/ha [5]: 10% | plant injury at 15.625 g/ha (corn (Zea mays) [6]): 0% | plant injury at 62.5 g/ha (corn (Zea mays) [6]): 0% | plant injury at 250 g/ha (corn (Zea mays) [6]): 20% | pest or weed control at 15.625 g/ha [7]: 20% | pest or weed control at 62.5 g/ha [7]: 60% | pest or weed control at 250 g/ha [7]: 80% | pest or weed control at 15.625 g/ha [8]: 0% | pest or weed control at 62.5 g/ha [8]: 0% | pest or weed control at 250 g/ha [8]: 30% | pest or weed control at 15.625 g/ha [9]: 20% | pest or weed control at 62.5 g/ha [9]: 50% | pest or weed control at 250 g/ha [9]: 90% | pest or weed control at 15.625 g/ha [10]: 0% | pest or weed control at 62.5 g/ha [10]: 0% | pest or weed control at 250 g/ha [10]: 0% | pest or weed control at 15.625 g/ha [11]: 0% | pest or weed control at 62.5 g/ha [11]: 0% | pest or weed control at 250 g/ha [11]: 0% | plant injury at 15.625 g/ha (corn (Zea mays) [12]): 0% | plant injury at 62.5 g/ha (corn (Zea mays) [12]): 0% | plant injury at 250 g/ha (corn (Zea mays) [12]): 0%

CN1C[C@@H](c2ccc(C(F)(F)F)cc2)[C@H](C(=O)Nc2ccnc(F)c2)C1=O (racemic) [Compound 1529]
pest or weed control at 15.625 g/ha [1]: 0% | pest or weed control at 62.5 g/ha [1]: 0% | pest or weed control at 250 g/ha [1]: 0% | pest or weed control at 15.625 g/ha [2]: 0% | pest or weed control at 62.5 g/ha [2]: 0% | pest or weed control at 250 g/ha [2]: 0% | pest or weed control at 15.625 g/ha [3]: 0% | pest or weed control at 62.5 g/ha [3]: 0% | pest or weed control at 250 g/ha [3]: 0% | pest or weed control at 15.625 g/ha [4]: 0% | pest or weed control at 62.5 g/ha [4]: 0% | pest or weed control at 250 g/ha [4]: 0% | pest or weed control at 15.625 g/ha [5]: 0% | pest or weed control at 62.5 g/ha [5]: 0% | pest or weed control at 250 g/ha [5]: 0% | plant injury at 15.625 g/ha (corn (Zea mays) [6]): 0% | plant injury at 62.5 g/ha (corn (Zea mays) [6]): 0% | plant injury at 250 g/ha (corn (Zea mays) [6]): 0% | pest or weed control at 15.625 g/ha [7]: 0% | pest or weed control at 62.5 g/ha [7]: 0% | pest or weed control at 250 g/ha [7]: 0% | pest or weed control at 15.625 g/ha [8]: 0% | pest or weed control at 62.5 g/ha [8]: 0% | pest or weed control at 250 g/ha [8]: 0% | pest or weed control at 15.625 g/ha [9]: 0% | pest or weed control at 62.5 g/ha [9]: 0% | pest or weed control at 250 g/ha [9]: 0% | pest or weed control at 15.625 g/ha [10]: 0% | pest or weed control at 62.5 g/ha [10]: 0% | pest or weed control at 250 g/ha [10]: 0% | pest or weed control at 15.625 g/ha [11]: 0% | pest or weed control at 62.5 g/ha [11]: 0% | pest or weed control at 250 g/ha [11]: 0% | plant injury at 15.625 g/ha (corn (Zea mays) [12]): 0% | plant injury at 62.5 g/ha (corn (Zea mays) [12]): 0% | plant injury at 250 g/ha (corn (Zea mays) [12]): 0%
